In patent publication US10663471B2, “Fluorescent sensors of peroxynitrite targeted to the endoplasmic reticulum” (The University of Kansas, priority 2018, dated 2020):
One block for each molecule: values may come before it.

Key:
RAW 264.7 macrophages [1] = experiment: subcellular localization by confocal laser scanning microscopy; assay type: cell-based; conditions: for ratio of cytosolic (ER-associated) to nuclear fluorescence: 10 μM, 4 h, living RAW 264.7 macrophages
Excerpt: The pro-fluorophore Compounds 1-8 can cause fluorescence in living cells upon reacting with peroxynitrite. The ability of ER-targeted sensors to detect endogenous peroxynitrite during phagocytosis was further investigated by confocal laser scanning microscopy. […] The left panels of FIGS. 7A-7B show the DIC micrographs and the right panels show the confocal laser scanning micrographs. […] When the cells were additionally treated with DNP-modified amino tentagel beads (10 micron) bound to anti-DNP IgG, cellular green fluorescence is observed and localized to the endoplasmic reticulum. In FIG. 7B, the white arrows point at phagocytosed beads. The scale bar in FIG. 7B is 25 microns. The right panel of FIG. 7A is relatively blank (white instead of black), and then fluorescence is seen in the right panel of FIG. 7B, thereby showing that there is localization to the ER by the compounds of the present invention.
After correcting for differences in brightness, this interpretation was further supported by analysis of cells treated with Compounds 1-8 by flow cytometry.
Analysis of Subcellular Localization.
RAW264.7 macrophages were scraped to passage and diluted to 300,000 cells/mL in complete medium. These cells were plated in an ibiTreat-coated 8-well μ-Slide (ibidi, 300 μL of media per well) and incubated at 37° C. overnight. The next day, the wells were washed once with complete media before treatment with fluorescent probes. Fluorescent sensors in DMSO stock solutions were diluted into complete media and added to cells. ER-Tracker Blue-White DPX (ThermoFisher Scientific) was diluted in DMSO to 100 μM followed by 1:1000 dilution with complete media. Labeled tentagel beads were added to cells at 200,000 beads/mL. Cells were incubated for 4 h at 37° C. followed by imaging by confocal microscopy (without washing). Phagocytosed beads were identified by morphology such as compression of the nucleus around the bead and adjacent fluorescence of ER membranes. […] To quantify the ratio of cytosolic to nuclear fluorescence (FIG. 8), Leica LAS X 2.0.1 software was used to define regions of interest (ROI) within the cytosol, nucleus, and cell-free regions. Mean fluorescence per pixel was calculated using Leica LAS X 2.0.1 software and plotted with SD (N=20). ROI from cell-free regions were used to subtract background fluorescence for comparison.

RAW 264.7 macrophages [2] = experiment: detection of peroxynitrite resulting from phagocytosis by flow cytometry; assay type: cell-based; conditions: for response of cellular fluorescence to SIN-1: SIN-1 50 μM, HPF 10 μM in HBSS, Fl-B 50 μM in DMEM; for cellular association (cellular fluorescence per sensor brightness): FIG. 8C
Excerpt: The ability of the pro-fluorophore Compounds 1-8 to generate cellular fluorescence was studied. The protocol included treating living RAW 264.7 macrophages with pro-fluorophore Compounds 1-8 and quantified cellular fluorescence by flow cytometry (FIGS. 6A-6B). To trigger phagocytosis and production of endogenous peroxynitrite, these cells were additionally treated with chemically-modified amino-tentagel beads. These beads were either covalently derivatized with the fluorophore Pacific Blue, to provide a less immunostimulatory control, or covalently conjugated with DNP and non-covalently bound to anti-DNP IgG, to promote bead phagocytosis as shown in FIG. 9. To provide a spectrally orthogonal marker, lysine residues of the antibody were conjugated to PB to allow labeled beads to be distinguished from cells by flow cytometry. […] Cells were treated (4 h) with sensor Compounds 1-8 (10 μM) and 10-micron amino-tentagel beads modified either with Pacific Blue-SE (Beads-PB) or 2,4-DNP-X-SE. To the DNP-modified beads was additionally added rabbit anti-DNP IgG (Beads/IgG), conjugated to Pacific Blue via lysines, to stimulate phagocytosis.
The ER-targeting pro-fluorophores were compared with non-ER-targeted sensors of peroxynitrite: hydroxyphenyl fluorescein (HPF) and fluorescein boronate (Fl-B). Since the fluorescence of HPF can be affected by serum proteins, cells were treated with this compound in Hank's balanced salt solution (HBSS). […] In FIG. 6B, the cells were treated with Compound 3 in DMEM media or HBSS and compared with treatment with hydroxyphenyl fluorescein (HPF, 10 μM in HBSS) and fluorescein boronate (Fl-B, 50 μM in DMEM). [SIN-1]=50 μM. [FeTMPyP]=50 μM.
Detection of Peroxynitrite Resulting from Phagocytosis by Flow Cytometry.
RAW264.7 macrophages were seeded on a non-treated 96-well plate (USA Scientific) in complete media (40,000 cells, 200 μL per well) 16 h prior to treatment. These cells adhere to treated plastic very strongly, and the use of non-treated plates was required for subsequent release and analysis of cells by flow cytometry. Fluorescent sensors were diluted from DMSO stock solutions into complete media (final concentration of probe=10 μM, 0.5% DMSO). Fluorescein and Compound 3 were added to Hank's Balanced Salt Solution (HBSS, Corning, pH 7.4). Labeled tentagel beads were added to this complete media or HBSS (200,000 beads/mL). The original media was carefully removed from all wells by aspiration and replaced with the treatment media containing beads and sensors (200 μL per well) in triplicate. After incubation of treated cells at 37° C. for 4 h, aqueous propidium iodide (PI, 20 μL, 30 μM, Thermo Fisher Scientific) was added to each well (final concentration of PI=3 μM). A p200 multichannel pipette was used to release the cells from the plate via sheer force. Cellular fluorescence was analyzed by flow cytometry. Viability was determined by gating based on staining of cells with compromised membranes with PI. Tentagel beads take up significant amounts of PI, making them brighter than cells at 690/50 nm. Additionally, labeling of tentagel beads with Pacific Blue makes them brighter than cells when excited at 405 nm, and additional excitation at this wavelength was used to assure that all beads were excluded from gating of live cells. Median values of fluorescence of living cells in the FITC-A channel (525/40 nm) were compared and plotted.

[3] = photophysical properties: quantum yields relative to rhodamine 6G in n-octanol, molar extinction coefficients in DMSO; assay type: physicochemical
Excerpt: Optical spectroscopic properties of the pro-fluorophore Compound 3, as a representative probe, and the rhodol product (Compound 9), in n-octanol as a mimic of ER membranes, are shown in FIG. 2.
The fluorescence emission of Compounds 1-8 was quenched by up to 1800-fold (for Compound 3, Φ=0.0004) compared to Compound 9 (Φ=0.72). However, the brightness of these sensors, calculated as the product of their measured molar extinction coefficients and quantum yields, varied by up to 30-fold (See FIGS. 2A and 2B).

[4] = limit of detection of peroxynitrite by fluorescence spectroscopy; conditions: sensor 50 nM in PBS pH 7.4, 0.1% DMSO, 5 min, 23° C.
Method: (PBS, pH 7.4, 0.1% DMSO).
Determination of the Limit of Detection of Peroxynitrite by Compound 3.
The concentration of a stock solution of pure peroxynitrite was measured by absorbance spectroscopy and diluted with aq. NaOH (0.1 M) to provide additional stock solutions. […] The detection limit of Compound 3 was determined based on a reported method (Yu, F., Li, P., Wang, B., and Han, K. (2013) Reversible near-infrared fluorescent probe introducing tellurium to mimetic glutathione peroxidase for monitoring the redox cycles between peroxynitrite and glutathione in vivo, J. Am. Chem. Soc. 135, 7674-7680; Shortreed, M., Kopelman, R., Kuhn, M., and Hoyland, B. (1996) Fluorescent fiber-optic calcium sensor for physiological measurements, Anal. Chem. 68, 1414-1418). The fluorescence emission at 526 nm was normalized between the minimum intensity (0 nM peroxynitrite, Fmin) and the maximum intensity (500 nM peroxynitrite, Fmax) using the following equation: (F−Fmin)/(Fmax−Fmin). […]

cells in culture = experiment: cytotoxicity in culture (FIG. 5); assay type: cell-based; conditions: 10 μM, 48 hours in culture
[5] = sensor 50 nM, PBS pH 7.4, 5 min, 23° C.
[6] = cited from earlier work

Molecule: Cc1cc(N(C)c2cc3oc4cc(=O)c(F)cc-4c(-c4ccccc4C)c3cc2F)ccc1O [Compound 2]
ratio of cytosolic (ER-associated) to nuclear fluorescence (RAW 264.7 macrophages [1]): 3.7

Molecule: COc1cc(N(C)c2cc3oc4cc(=O)c(F)cc-4c(-c4ccccc4C)c3cc2F)ccc1O [Compound 5]
ratio of cytosolic (ER-associated) to nuclear fluorescence (RAW 264.7 macrophages [1]): 2.6

Molecule: fluorescein boronate [Fl-B, reference compound]
response of cellular fluorescence to SIN-1 (RAW 264.7 macrophages [2]): responded to SIN-1 and could increase cellular fluorescence

Molecule: Cc1ccccc1-c1c2cc(F)c(=O)cc-2oc2cc(N(C)c3cc(C)c(O)c(C)c3)c(F)cc12 [Compound 3]
quantum yield Φ [3]: 0.0004
approximate limit of detection: peroxynitrite giving a 2-fold increase in fluorescence intensity [4]: ~40 nM
decrease of cellular fluorescence on co-treatment with peroxynitrite decomposition catalyst FeTMPyP (RAW 264.7 macrophages [2]; IgG-bound beads, FeTMPyP 50 μM): over 50%
detection of peroxynitrite upon mild treatment of cells with antibody-opsonized tentagel beads (RAW 264.7 macrophages [2]; flow cytometry, FIG. 6B): could detect peroxynitrite
concentration in cells relative to Compound 5 (RAW 264.7 macrophages [2]; flow cytometry, corrected for brightness, identical conditions (FIG. 8C)): 4 fold
change in cellular fluorescence upon addition of IgG-coated beads (RAW 264.7 macrophages [2]; sensor 10 μM, 4 h, Beads/IgG, flow cytometry): 10 fold
cytotoxicity (cells in culture): negligible cytotoxicity
cytosolic fluorescence after addition of antibody-opsonized beads (RAW 264.7 macrophages [1]; 10 μM sensor, tentagel beads/IgG, confocal microscopy): dramatic increase in localized cytosolic fluorescence
ratio of cytosolic (ER-associated) to nuclear fluorescence (RAW 264.7 macrophages [1]): 6.7
fluorescence enhancement on co-treatment with FeTMPyP (RAW 264.7 macrophages [1]; confocal microscopy, data not shown): substantially reduced
accumulation in the ER by co-localization with ER tracker blue-white DPX (RAW 264.7 macrophages [1]; data not shown): confirmed to accumulate in the ER
conversion by SIN-1 to Compound 9, analysis by HPLC (HPLC): cleanly convert
pseudo-first-order half-time t1/2 of reaction with SIN-1 (buffer, pH 7.4): 49 s
selectivity for peroxynitrite versus perchlorite, hydroxyl radical, superoxide, peroxides, nitric oxide [5]: highly selective for peroxynitrite

Molecule: Cc1ccccc1-c1c2cc(F)c(=O)cc-2oc2cc(N(C)c3cc(C(C)(C)C)c(O)c(C(C)(C)C)c3)c(F)cc12 [Compound 4]
cellular association (cellular fluorescence per sensor brightness) (RAW 264.7 macrophages [2]; flow cytometry): lower cellular association than Compound 2

quantum yield Φ [3]: 0.72
Molecule: CNc1cc2oc3cc(=O)c(F)cc-3c(-c3ccccc3C)c2cc1F [Compound 9]
accumulation in the ER by co-localization with ER tracker blue-white DPX (RAW 264.7 macrophages [1]; data not shown): confirmed to accumulate in the ER
time to extensive loss of cellular fluorescence after washing cells once with complete media (efflux) (RAW 264.7 macrophages [1]; data not shown): 10 to 20 min

Molecule: O=C1OC2(c3ccc(O)cc3Oc3cc(Oc4ccc(O)cc4)ccc32)c2ccccc21 (stereo not drawn) [HPF, hydroxyphenyl fluorescein, reference compound]
response of cellular fluorescence to SIN-1 (RAW 264.7 macrophages [2]): responded to SIN-1 and could increase cellular fluorescence

Molecule: O=NOO [peroxynitrous acid]
pKa [6]: 6.84

Molecule: Cc1ccccc1-c1c2cc(F)c(=O)cc-2oc2cc(N(C)c3cc(Cl)c(O)c(Cl)c3)c(F)cc12 [Compound 8]
cellular association (cellular fluorescence per sensor brightness) (RAW 264.7 macrophages [2]; flow cytometry): lowest cellular association
